Laboratory results taken from patent US6946480B2, “Glutaminyl based DPIV inhibitors” (priority 2002, dated 2005).

Biological target: T1, plasma DPIV activity (Rattus norvegicus, UniProt P14740)
T1 construct: The assay mixture for determination of plasma DPIV activity consisted of 80 μl reagent and 20 μl plasma sample; from tissue; host or cells: plasma of male Wistar rats
Assay: Plasma DPIV inhibiting activity after intravasal and oral administration to Wistar rats
Assay type: in vivo
Details: 100 mg/kg b.w. vs. placebo, oral and intra-vasal administration
Method: Male Wistar rats (Shoe: Wist(Sho)) with a body weight ranging between 250 and 350 g were purchased from Tierzucht Schönwalde (Schönwalde, Germany).
Animals were single-caged under conventional conditions with controlled temperature (22±2° C.) on a 12/12 hours light/dark cycle (light on at 06:00 AM). Standard pelleted chow (ssniff® Soest, Germany) and tap water acidified with HCl were allowed ad libitum.
After ≧one week of adaptation at the housing conditions, catheters were implanted into the carotid artery of Wistar rats under general anaesthesia (i.p. injection of 0.25 ml/kg b.w. Rompun® [2%], BayerVital, Germany and 0.5 ml/kg b.w. Ketamin 10, Atarost GmbH & Co., Twistringen, Germany). The animals were allowed to recover for one week. The catheters were flushed with heparin-saline (100 IU/ml) three times per week. In case of catheter dysfunction, a second catheter was inserted into the contra-lateral carotid artery of the respective rat. After one week of recovery from surgery, this animal was reintegrated into the study. In case of dysfunction of the second catheter, the animal was withdrawn from the study. […]
Statistical evaluations and graphics were performed with PRISM® 3.02 (GraphPad Software, Inc.). All parameters were analysed in a descriptive manner including mean and SD.

T1 sequence (P14740 37-767 limits assumed): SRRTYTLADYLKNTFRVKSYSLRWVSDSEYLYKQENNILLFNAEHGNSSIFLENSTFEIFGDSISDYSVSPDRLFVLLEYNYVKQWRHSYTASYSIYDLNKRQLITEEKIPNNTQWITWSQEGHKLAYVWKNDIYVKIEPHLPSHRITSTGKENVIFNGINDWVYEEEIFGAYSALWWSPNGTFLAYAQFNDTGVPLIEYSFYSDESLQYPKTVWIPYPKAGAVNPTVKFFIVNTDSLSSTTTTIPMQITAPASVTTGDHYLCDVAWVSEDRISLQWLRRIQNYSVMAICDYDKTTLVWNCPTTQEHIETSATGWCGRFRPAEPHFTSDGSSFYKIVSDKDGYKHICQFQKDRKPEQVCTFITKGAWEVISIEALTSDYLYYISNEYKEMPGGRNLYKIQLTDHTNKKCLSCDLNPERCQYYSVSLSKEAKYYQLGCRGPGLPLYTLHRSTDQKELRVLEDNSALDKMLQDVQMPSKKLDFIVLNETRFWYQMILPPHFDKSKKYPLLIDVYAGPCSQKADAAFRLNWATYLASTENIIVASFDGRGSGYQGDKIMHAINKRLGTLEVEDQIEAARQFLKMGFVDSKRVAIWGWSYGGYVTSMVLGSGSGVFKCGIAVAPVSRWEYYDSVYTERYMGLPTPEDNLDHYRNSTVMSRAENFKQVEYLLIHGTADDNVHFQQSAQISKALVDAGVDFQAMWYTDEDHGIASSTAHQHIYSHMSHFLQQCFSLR

SMILES: NC(=O)CC[C@H](N)C(=O)N1CCCC1 [glutaminyl pyrrolidine]
- inhibition of plasma DPIV activity in vivo: inhibited plasma DPIV activity
